In ChEMBL document CHEMBL6092220 (J Med Chem, 2024):

How the values were obtained:
[1] = target: T1, Protein cereblon/Signal transducer and activator of transcription 3 (Mus musculus) (UniProt P42227+Q8C7D2); assay: In-vivo PROTAC activity at STAT3/CRBN in female CB17 SCID mouse assessed as reduction STAT3 level spleen at 10 mg/kg, iv measured at 48 hrs by Western blot analysis; type: functional, organism-based; set-up: scale not given: the % may be the effect or the level left
[2] = Clearance in ICR mouse assessed as hepatic blood flow at 5 mg/kg, iv; type: ADME, organism-based; settings: in vivo
[3] = Half life in Sprague-Dawley rat at 5 mg/kg, iv; type: ADME, organism-based; settings: in vivo
[4] = test system: SU-DHL-1; assay: Antiproliferative activity against human SU-DHL-1 cells assessed as cell growth inhibition incubated for 4 days by celltiter-glo assay; type: functional, cell-based; settings: SU-DHL-1, 96 h
[5] = target: T2, Protein cereblon/Signal transducer and activator of transcription 3 (Homo sapiens, UniProt P40763+Q96SW2); assay: PROTAC activity at his-SUMO-tagged STAT3 (127 to 688 residues)/CRBN in human HeLa cells assessed as induction of STAT3 degradation incubated for 24 hrs by TECAN SPARK microplate reader analysis relative to control; type: cell-based
[6] = AUC (0 to t) in ICR mouse at 5 mg/kg, iv; type: ADME, organism-based; settings: in vivo
[7] = AUC (0 to t) in Sprague-Dawley rat at 5 mg/kg, iv; type: ADME, organism-based; settings: in vivo
[8] = Apparent volume of distribution in Beagle dog at 1 mg/kg, iv; type: ADME, organism-based, Canis lupus familiaris; settings: in vivo, read-out: Vz
[9] = Antiproliferative activity against human SUPM2 cells assessed as cell growth inhibition incubated for 4 days by celltiter-glo assay; type: functional, cell-based; settings: SUP-M2, 96 h
[10] = Half life in Beagle dog at 1 mg/kg, iv; type: ADME, organism-based, Canis lupus familiaris; settings: in vivo
[11] = Antiproliferative activity against human MOLM16 cells assessed as cell growth inhibition incubated for 4 days by celltiter-glo assay; type: functional, cell-based, MOLM-16; settings: MOLM16, 96 h
[12] = Plasma protein binding in rat assessed as unbound fraction at 10 uM; type: ADME, cell-free
[13] = Plasma protein binding in human assessed as unbound fraction at 10 uM; type: ADME, cell-free
[14] = Clearance in Sprague-Dawley rat at 5 mg/kg, iv; type: ADME, organism-based; settings: in vivo
[15] = target: T1, Protein cereblon/Signal transducer and activator of transcription 3 (Mus musculus); assay: In-vivo PROTAC activity at STAT3/CRBN in female CB17 SCID mouse assessed as reduction STAT3 level liver at 10 mg/kg, iv measured at 72 hrs by Western blot analysis; type: functional, organism-based; set-up: scale not given: the % may be the effect or the level left
[16] = Plasma protein binding in human at 10 uM; type: ADME, cell-free
[17] = Plasma protein binding in rat at 10 uM; type: ADME, cell-free
[18] = Apparent volume of distribution in ICR mouse at 5 mg/kg, iv; type: ADME, organism-based; settings: in vivo, read-out: Vz
[19] = target: T1, Protein cereblon/Signal transducer and activator of transcription 3 (Mus musculus); assay: In-vivo PROTAC activity at STAT3/CRBN in female CB17 SCID mouse assessed as reduction STAT3 level spleen at 10 mg/kg, iv measured at 72 hrs by Western blot analysis; type: functional, organism-based; set-up: scale not given: the % may be the effect or the level left
[20] = AUC (0 to t) in Beagle dog at 1 mg/kg, iv; type: ADME, organism-based, Canis lupus familiaris; settings: in vivo
[21] = target: T2, Protein cereblon/Signal transducer and activator of transcription 3; assay: PROTAC activity at his-SUMO-tagged STAT3 (127 to 688 residues)/CRBN in human HeLa cells assessed as induction of STAT3 degradation incubated for 24 hrs by TECAN SPARK microplate reader analysis; type: cell-based
[22] = Cmax in Sprague-Dawley rat at 5 mg/kg, iv; type: ADME, organism-based; settings: in vivo
[23] = Clearance in Sprague-Dawley rat assessed as hepatic blood flow at 5 mg/kg, iv; type: ADME, organism-based; settings: in vivo
[24] = Clearance in Beagle dog assessed as hepatic blood flow at 1 mg/kg, iv; type: ADME, organism-based, Canis lupus familiaris; settings: in vivo
[25] = target: T1, Protein cereblon/Signal transducer and activator of transcription 3 (Mus musculus); assay: In-vivo PROTAC activity at STAT3/CRBN in female CB17 SCID mouse assessed as reduction STAT3 level spleen at 10 mg/kg, iv measured at 24 hrs by Western blot analysis; type: functional, organism-based; set-up: scale not given: the % may be the effect or the level left
[26] = Apparent volume of distribution in Sprague-Dawley rat at 5 mg/kg, iv; type: ADME, organism-based; settings: in vivo, read-out: Vz
[27] = Clearance in Beagle dog at 1 mg/kg, iv; type: ADME, organism-based, Canis lupus familiaris; settings: in vivo
[28] = Plasma protein binding in dog at 10 uM; type: ADME, cell-free, Canis lupus familiaris
[29] = Cmax in ICR mouse at 5 mg/kg, iv; type: ADME, organism-based; settings: in vivo
[30] = Clearance in ICR mouse at 5 mg/kg, iv; type: ADME, organism-based; settings: in vivo
[31] = Plasma protein binding in mouse at 10 uM; type: ADME, cell-free
[32] = Plasma protein binding in dog assessed as unbound fraction at 10 uM; type: ADME, cell-free, Canis lupus familiaris
[33] = Cmax in Beagle dog at 1 mg/kg, iv; type: ADME, organism-based, Canis lupus familiaris; settings: in vivo
[34] = Half life in ICR mouse at 5 mg/kg, iv; type: ADME, organism-based; settings: in vivo
[35] = target: T1, Protein cereblon/Signal transducer and activator of transcription 3 (Mus musculus); assay: In-vivo PROTAC activity at STAT3/CRBN in female CB17 SCID mouse assessed as reduction STAT3 level liver at 10 mg/kg, iv measured at 24 hrs by Western blot analysis; type: functional, organism-based; set-up: scale not given: the % may be the effect or the level left
[36] = target: T1, Protein cereblon/Signal transducer and activator of transcription 3 (Mus musculus); assay: In-vivo PROTAC activity at STAT3/CRBN in female CB17 SCID mouse assessed as reduction STAT3 level liver at 10 mg/kg, iv measured at 48 hrs by Western blot analysis; type: functional, organism-based; set-up: scale not given: the % may be the effect or the level left

## CC(=O)N1CC[C@H]2CC[C@@H](C(=O)N[C@@H](CCC(N)=O)C(=O)N[C@@H](Cc3ccc(F)c(F)c3)C(=O)N3CCC(CCC#Cc4cccc5c4CN(C4CCC(=O)NC4=O)C5=O)CC3)N2C(=O)[C@@H](NC(=O)c2cc3cc(C(F)(F)P(=O)(O)O)ccc3s2)C1 (stereo partly specified)
[1]
  Activity: > 90%
[2]
  QH: 0.1%
[3]
  half-life: 1.3 h
[4]
  IC50: 3580 nM
[5]
  Emax: 68%
[6]
  AUC(0-t): 739000 ng·h/mL
[7]
  AUC(0-t): 21100 ng·h/mL
[8]
  Vd: 0.24 L/kg
[9]
  IC50: 1460 nM
[10]
  half-life: 2.9 h
[11]
  IC50: 75 nM
[12]
  Fu: 3.8%
[13]
  Fu: 0.6%
[14]
  clearance: 4 mL/min/kg
[15]
  Activity: > 90%
[16]
  PPB: 99.4%
[17]
  PPB: 96.2%
[18]
  Vd: 0.11 L/kg
[19]
  Activity: > 90%
[20]
  AUC(0-t): 15000 ng·h/mL
[21]
  DC50: 1600 nM
[22]
  Cmax: 15900 ng/mL
[23]
  QH: 7.3%
[24]
  QH: 3.1%
[25]
  Activity: > 90%
[26]
  Vd: 0.44 L/kg
[27]
  clearance: 1 mL/min/kg
[28]
  PPB: 96.7%
[29]
  Cmax: 121000 ng/mL
[30]
  clearance: 0.073 mL/min/kg
[31]
  PPB: 99.1%
[32]
  Fu: 3.3%
[33]
  Cmax: 8030 ng/mL
[34]
  half-life: 16.9 h
[35]
  Activity: > 90%
[36]
  Activity: > 90%
